Data set [1] concerns SKOV-3 HER2-overexpressing ovarian cancer cells.
Experimental: (§1) Compounds were tested for antiproliferative activity against several cancer cell lines and a control cell line. […] CP was the control peptidomimetic. […] SKOV-3 and Calu-3 are HER2-overexpressing ovarian and lung cancer cells, respectively. (+) and (−) indicate HER2-positive and HER2-negative, respectively.
Data set [2] has as its system SKBR-3 HER2-overexpressing breast cancer cells.
Experimental: as §1
A short description of data set [3]: Stability in mouse serum (electrospray-mass spectrometry).
Experimental: (§2) Compounds were incubated in mouse serum for various times, and then extracted using a solid-phase extraction technique. The compounds were analyzed with electrospray-mass spectrometry. A known amount of a freshly-prepared internal standard was used for calibration.
Data set [4] has as its system MCF-7 breast cancer cells that do not overexpress HER2.
Experimental: as §1
For data set [5], the system named is MCF-10A normal breast epithelial cell line.
For data set [6] the following is noted: mouse, serum.
Experimental: as §2
The test system of data set [7] is Calu-3 HER2-overexpressing lung cancer cells.
Experimental: as §1
In data set [8] the test system is BT-474 HER2-overexpressing breast cancer cells.
Experimental: as §1
For data set [9] the test system is unchanged. Nature of the data set: cells. To be noted: Homo sapiens, BT-474, read-out: IC50 BT-474 (+).
Experimental: as §1
Data set [10] deals with HER2-expressing breast tumors (BT-474 cells). Nature of the data set: BT-474 xenograft model of breast cancer, tumor volume. Type of data set: in vivo, nude mice. Conditions: 4 mg/kg injected just below the tumor, twice a week for 19 days; Days 9-19. The protocol:
We evaluated the ability of Compound 18 to suppress HER2-expressing breast tumors in a xenograft model of breast cancer. Breast cancer tumors were induced in nude mice by injecting 2 million BT-474 cells; these estrogen-dependent cancer cells were stimulated by an implanted estrogen pellet. Compound 9, Compound 18, vehicle, or lapatinib (positive control) were injected just below the tumor at a dose of 4 mg/kg, twice a week for 19 days, for a total of 6 injections. Mice weight and health were monitored daily. Tumor size was measured with Vernier calipers. Tumor volume was estimated using the formula Volume=length×0.5 (width)^2. At the end of the experimental period, mice were euthanized and tumor sections were removed and frozen for further analysis. FIG. 9 depicts tumor volume as a function of time for the various treatments.

The mark [11] stands for this setting: read-out: IC50 SKOV-3 (+), antiproliferative activity, HER2-positive ovarian cancer cells, Table 3.
The mark [12] stands for this setting: read-out: IC50 SKBR-3 (+), antiproliferative activity, HER2-positive breast cancer cells, Table 3.
Where [13] appears, read: read-out: IC50 MCF-7 (−), antiproliferative activity, HER2-negative breast cancer cells, Table 3.
Where [14] appears, read: read-out: IC50 Calu-3 (+), antiproliferative activity, HER2-positive lung cancer cells, Table 3.
[15] abbreviates: read-out: IC50 BT-474 (+), antiproliferative activity, HER2-positive breast cancer cells, Table 3.

Like-named read-outs stand apart in the source and are kept apart here. Numbered stars: 1 amine (or outer) side, 2 acyl side, 3 side chain; on linkers, the order of the positions; unused ones are H or OH. Square brackets hold non-standard residues; d marks the D form. Peptide text beside a SMILES is read from it. βAla(3R-(1-naphthyl)) = O=C(C[C@@H](N[*:1])c1cccc2ccccc12)[*:2]; X1 = O=C(CC(N[*:1])c1cccc2ccccc12)[*:2] Some results are limits rather than exact numbers.

For `N=C(N)NCCC[C@H](N)C(=O)NC(CC(=O)N[C@@H](Cc1ccccc1)C(=O)O)c1cccc2ccccc12` (some centres unmarked) [Compound 5, H2N-R(Anapa)F-OH], the IC50 was 0.658 ± 0.04 µM in data set [1] (setting [11]) and 0.396 ± 0.022 µM in [2] (setting [12]). Moreover, in data set [3] (mouse, serum), the half-life fell in the range of 2 to 3 h.
Turning to `N=C(N)NCCC[C@@H]1NC(=O)[C@H]2CCCN2C(=O)[C@@H]2CCCN2C(=O)[C@H](CCCNC(=N)N)NC(=O)CC(c2cccc3ccccc23)NC(=O)[C@H](Cc2ccccc2)NC(=O)[C@H](CC(=O)O)NC(=O)[C@H](CC(=O)O)NC(=O)[C@H](Cc2ccccc2)NC(=O)CC(c2cccc3ccccc23)NC1=O` (some centres unmarked) [Compound 18, Cyclo(1,10)PpR(Anapa)FDDF(Anapa)R] (cyclo(P[dP]R[X1]FDDF[X1]R)), the IC50 in data set [4] (setting [13]) was above 50 µM; in data set [5] (read-out: IC50 MCF-10A, antiproliferative activity, normal breast epithelial cell line) it was 40 µM; in data set [1] (setting [11]) it was 0.853 ± 0.102 µM; in [2] (setting [12]), 0.194 ± 0.046 µM; in data set [7] (setting [14]) it was 0.018 ± 0.013 µM. Further, in data set [5], the “toxicity to normal cells” value was “not toxic to normal cells”. Further, the half-life in data set [6] was above 48 h.
Consider `CC(=O)N[C@H](Cc1ccccc1)C(=O)NC(CC(=O)N[C@H](CCCNC(=N)N)C(N)=O)c1cccc2ccccc12` (some centres unmarked) [Compound 21, Ac-f(Anapa)r-NH2], for which the IC50 in data set [4] was above 50 µM; in data set [8] it was 0.595 ± 0.27 µM; in data set [1] it was 0.373 ± 0.15 µM; in data set [2], 0.373 ± 0.15 µM; in data set [7], 1.09 ± 0.31 µM.
Regarding `N=C(N)NCCC[C@@H]1NC(=O)[C@H]2CCCN2C(=O)[C@@H]2CCCN2C(=O)[C@H](CCCCN)NC(=O)C[C@H](c2cccc3ccccc23)NC(=O)[C@H](Cc2ccccc2)NC(=O)[C@H](CC(=O)O)NC(=O)[C@H](CC(=O)O)NC(=O)[C@H](Cc2ccccc2)NC(=O)C[C@H](c2cccc3ccccc23)NC1=O` [Compound 33, Cyclo(PpR-(R)Anapa-FDDF-(R)Anapa-K], the IC50 was above 100 µM in data set [4], 0.4 ± 0.14 µM in data set [8], 0.5 ± 0.28 µM in [2] and 0.9 ± 0.2 µM in data set [7].
On to `N=C(N)NCCC[C@H]1NC(=O)[C@H]2CCCN2C(=O)[C@@H]2CCCN2C(=O)[C@@H](CCCNC(=N)N)NC(=O)C[C@H](c2cccc3ccccc23)NC(=O)[C@@H](Cc2ccccc2)NC(=O)[C@@H](CC(=O)O)NC(=O)[C@@H](CC(=O)O)NC(=O)[C@@H](Cc2ccccc2)NC(=O)C[C@H](c2cccc3ccccc23)NC1=O` [Compound 38, Cyclo(Ppr-(R)Anapa-fddf-(R)Anapa-r] (cyclo(P[dP][dR][βAla(3R-(1-naphthyl))][dF][dD][dD][dF][βAla(3R-(1-naphthyl))][dR])), for which the IC50 in [4] (read-out: Antiproliferative activity IC50 MCF-7, Table 5) worked out at 13.5 ± 0.7 µM; in [8] (read-out: Antiproliferative activity IC50 BT-474, Table 5), 0.86 ± 0.05 µM; in [2] (read-out: Antiproliferative activity IC50 SKBR-3, Table 5), 0.8 ± 0.07 µM; in data set [7] (read-out: Antiproliferative activity IC50 Calu-3, Table 5) it was 0.55 ± 0.2 µM.
`N=C(N)NCCC[C@H]1NC(=O)[C@H]2CCCN2C(=O)[C@@H]2CCCN2C(=O)[C@@H](CC(=O)O)NC(=O)[C@@H](Cc2ccccc2)NC(=O)C[C@H](c2cccc3ccccc23)NC(=O)[C@@H](CCCNC(=N)N)NC(=O)[C@@H](CC(=O)O)NC(=O)[C@@H](Cc2ccccc2)NC(=O)C[C@H](c2cccc3ccccc23)NC1=O` [Compound 41, Cyclo(Ppr-(R)Anapa-fdr-(R)Anapa-fd] (cyclo(P[dP][dR][βAla(3R-(1-naphthyl))][dF][dD][dR][βAla(3R-(1-naphthyl))][dF][dD])) returned an IC50 in data set [8] of 0.85 ± 0.07 µM.
`CS(=O)(=O)CCNCc1ccc(-c2ccc3ncnc(Nc4ccc(OCc5cccc(F)c5)c(Cl)c4)c3c2)o1` [Lapatinib, reference compound]: in [9], the IC50 amounted to 0.025 ± 0.004 µM. In data set [10], the “tumor volume compared to control” value is “decreased tumor volume”.
Turning to “H2N-K(3-amino-biphenyl propionic acid)F-OH [CP, reference compound]”, the IC50 in [4] (setting [13]), in data set [8] (setting [15]), in data set [1] (setting [11]), in data set [2] (setting [12]) and in [7] (setting [14]) was above 100 µM in each case.
In the case of H2N-R(Anapa)FD-OH [Compound 9], the half-inhibitory concentration (IC50) turned out to be 45 µM in [4] (setting [13]); 0.785 ± 0.011 µM in data set [8] (setting [15]); 0.417 ± 0.055 µM in data set [1] (setting [11]); 0.445 ± 0.032 µM in [2] (setting [12]); 0.847 ± 0.071 µM in data set [7] (setting [14]). Further, the “tumor volume compared to control” value in [10] is listed as “decreased tumor volume”. Besides, the “time within which degraded in mouse serum” value in data set [3] (mouse serum, FIG. 10) is at most 24 h.
